Laboratory results published in patent US10532995B2, “Substituted pyrazole compounds as serine protease inhibitors” (VERSEON CORPORATION, priority 2015, dated 2020).
Counter-ions that a name gives are not always drawn.

Biological target: T1, Human thrombin (Homo sapiens, UniProt P00734)
T1 construct: purchased Haematologic Technologies Inc
Assay: Thrombin protease activity inhibition, chromogenic substrate S-2238
Assay type: biochemical
Conditions: 3 nM thrombin, 125 μM S-2238, 10 min pre-incubation, RT
How it was run: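 Thrombin at 3 nM final in 0.05 M Tris pH 7.4, 0.015 M NaCl, 0.01% PEG-8000, at room temperature; compounds as ten-point three-fold dilutions.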

**Q.** For COc1ccccc1C(=O)n1nc(C2(C)CCNC2=O)cc1NCc1ccc(Cl)s1 (stereo not shown) [Entry 118, 3-(5-[(5-chlorothiophen-2-yl)methyl]amino-1-(2-methoxybenzoyl)-1H-pyrazol-3-yl)-3-methylpyrrolidin-2-one], which IC50 is on record?
**A.** 100 to 1000 nM

**Q.** Which IC50 does the source give for CC(C)(CO)C(=O)n1nc(C2CCN(CC(=O)O)CC2)cc1NCc1ccc(Cl)s1 [Entry 110, 2-[4-(5-[(5-chlorothiophen-2-yl)methyl]amino-1-(3-hydroxy-2,2-dimethylpropanoyl)-1H-pyrazol-3-yl)piperidin-1-yl]acetic acid] here?
**A.** 100 to 1000 nM

**Q.** Which IC50 does the source give for O=S(=O)(N1CCOCC1)N1CCC(c2cc(NCc3ccc(Cl)s3)[nH]n2)CC1 [Entry 207, N-[(5-chlorothiophen-2-yl)methyl]-3-[1-(morpholine-4-sulfonyl)piperidin-4-yl]-1H-pyrazol-5-amine] here?
**A.** > 100000 nM

**Q.** For Cc1c(C2CCN(C(=O)N3CCOCC3)CC2)n[nH]c1NCc1ccc(Cl)s1 [Entry 237, N-[(5-chlorothiophen-2-yl)methyl]-4-methyl-3-[1-(morpholine-4-carbonyl)piperidin-4-yl]-1H-pyrazol-5-amine], which IC50 is on record?
**A.** 10000 to 100000 nM

**Q.** Which IC50 does the source give for CC(C)(C)C(=O)n1nc(C2CC3CCC(C2)N3S(C)(=O)=O)cc1NCc1ccc(Cl)s1 (stereo not shown) [Entry 81, 1-(5-[(5-chlorothiophen-2-yl)methyl]amino-3-8-methanesulfonyl-8-azabicyclo[3.2.1]octan-3-yl-1H-pyrazol-1-yl)-2,2-dimethylpropan-1-one] here?
**A.** < 100 nM

**Q.** Which IC50 does the source give for O=C(c1ccccc1)n1nc(C2CCNCC2)cc1NCc1ccc(Cl)s1 [Entry 105, 1-benzoyl-N-[(5-chlorothiophen-2-yl)methyl]-3-(piperidin-4-yl)-1H-pyrazol-5-amine hydrochloride] here?
**A.** 100 to 1000 nM

**Q.** Which IC50 does the source give for C=CCOC(=O)N1CCCC(c2cc(NCc3ccc(Cl)s3)[nH]n2)CC1 (stereo not shown) [Entry 265, prop-2-en-1-yl 4-(5-[(5-chlorothiophen-2-yl)methyl]amino-1H-pyrazol-3-yl)azepane-1-carboxylate] here?
**A.** > 100000 nM

**Q.** Which IC50 does the source give for CC(C)(C)OC(=O)N1CCCC(c2cc(NCc3ccc(Cl)s3)n(C(=O)c3ccsc3)n2)C1 (stereo not shown) [Entry 289, tert-butyl 3-(5-[(5-chlorothiophen-2-yl)methyl]amino-1-(thiophene-3-carbonyl)-1H-pyrazol-3-yl)piperidine-1-carboxylate] here?
**A.** < 100 nM

**Q.** Which IC50 does the source give for CN1CCC(C)(C(=O)n2nc(C3CCN(C(=O)N4CCOCC4)CC3)cc2NCc2ccc(Cl)s2)CC1 [Entry 142, N-[(5-chlorothiophen-2-yl)methyl]-1-(1,4-dimethylpiperidine-4-carbonyl)-3-[1-(morpholine-4-carbonyl)piperidin-4-yl]-1H-pyrazol-5-amine; formic acid] here?
**A.** 100 to 1000 nM

**Q.** With CC(C)(C)OC(=O)N1CCC(c2cc(NCc3ccc(Cl)s3)n(C(=O)C(C)(C)C)n2)CC1 [Entry 292, tert-butyl 4-(5-[(5-chlorothiophen-2-yl)methyl]amino-1-(2,2-dimethylpropanoyl)-1H-pyrazol-3-yl)piperidine-1-carboxylate] as the molecule, how does the IC50 read?
**A.** < 100 nM

**Q.** With COc1ccccc1C(=O)n1nc(C2(C)CCCNC2=O)cc1NCc1ccc(Cl)s1 (stereo not shown) [Entry 117, 3-(5-[(5-chlorothiophen-2-yl)methyl]amino-1-(2-methoxybenzoyl)-1H-pyrazol-3-yl)-3-methylpiperidin-2-one] as the molecule, how does the IC50 read?
**A.** 100 to 1000 nM

**Q.** Which IC50 does the source give for O=C(CN1CCOCC1)N1CCCC1c1cc(NCc2ccc(Cl)s2)[nH]n1 (stereo not shown) [Entry 93, 1-[2-(5-[(5-chlorothiophen-2-yl)methyl]amino-1H-pyrazol-3-yl)pyrrolidin-1-yl]-2-(morpholin-4-yl)ethan-1-one] here?
**A.** > 100000 nM

**Q.** Which IC50 does the source give for CC(C)(C)OC(=O)N1CCCC1(C)c1cc(NCc2ccc(Cl)s2)n(C(=O)C(C)(C)CO)n1 (stereo not shown) [Entry 274, tert-butyl 2-(5-[(5-chlorothiophen-2-yl)methyl]amino-1-(3-hydroxy-2,2-dimethylpropanoyl)-1H-pyrazol-3-yl)-2-methylpyrrolidine-1-carboxylate] here?
**A.** 100 to 1000 nM

**Q.** For CC(=O)N1CCC(c2cc(NCc3ccc(Cl)s3)n(C(=O)c3ccsc3)n2)CC1 [Entry 102, 1-[4-(5-[(5-chlorothiophen-2-yl)methyl]amino-1-(thiophene-3-carbonyl)-1H-pyrazol-3-yl)piperidin-1-yl]ethan-1-one], which IC50 is on record?
**A.** 100 to 1000 nM

**Q.** For C=CCOC(=O)N1CCN(S(C)(=O)=O)CC1c1cc(NCc2ccc(Cl)s2)n(C(=O)C(C)(C)C)n1 (stereo not shown) [Entry 246, prop-2-en-1-yl 2-(5-[(5-chlorothiophen-2-yl)methyl]amino-1-(2,2-dimethylpropanoyl)-1H-pyrazol-3-yl)-4-methanesulfonylpiperazine-1-carboxylate], which IC50 is on record?
**A.** > 100000 nM

**Q.** Which IC50 does the source give for C=CCOC(=O)N1CCC(c2cc(NCc3ccc(Cl)s3)[nH]n2)C1 (stereo not shown) [Entry 259, prop-2-en-1-yl 3-(5-[(5-chlorothiophen-2-yl)methyl]amino-1H-pyrazol-3-yl)pyrrolidine-1-carboxylate] here?
**A.** > 100000 nM

**Q.** With COc1ccccc1C(=O)n1nc(C2(C)CCCNC2)cc1NCc1ccc(Cl)s1 (stereo not shown) [Entry 153, N-[(5-chlorothiophen-2-yl)methyl]-1-(2-methoxybenzoyl)-3-(3-methylpiperidin-3-yl)-1H-pyrazol-5-amine] as the molecule, how does the IC50 read?
**A.** 1000 to 10000 nM

**Q.** With COC(C)(C)C(=O)n1nc(C2CCNCC2)c(F)c1NCc1ccc(Cl)s1 [Entry 86, 1-(5-[(5-chlorothiophen-2-yl)methyl]amino-4-fluoro-3-(piperidin-4-yl)-1H-pyrazol-1-yl)-2-methoxy-2-methylpropan-1-one] as the molecule, how does the IC50 read?
**A.** 100 to 1000 nM

**Q.** With O=C(c1ccsc1)n1nc(C2CCOCC2)cc1NCc1ccc(Cl)s1 [Entry 181, N-[(5-chlorothiophen-2-yl)methyl]-3-(oxan-4-yl)-1-(thiophene-3-carbonyl)-1H-pyrazol-5-amine] as the molecule, how does the IC50 read?
**A.** 100 to 1000 nM

Tested on: malignant breast tumors
Assay: not given
Conditions: at 4 weeks, treated mice; cited from earlier work

**Q.** With CCCCCCOC(=O)NC(=N)c1ccc(NCc2nc3cc(C(=O)N(CCC(=O)OCC)c4ccccn4)ccc3n2C)cc1 [dabigatran etexilate] as the molecule, how does the “reduction in tumor volume” value read?
**A.** 50%

Same assay, conditions: at 4 weeks; cited from earlier work

**Q.** For CCCCCCOC(=O)NC(=N)c1ccc(NCc2nc3cc(C(=O)N(CCC(=O)OCC)c4ccccn4)ccc3n2C)cc1 [dabigatran etexilate], which “weight loss in treated mice” value is on record?
**A.** no weight loss

Same assay, conditions: treated mice; cited from earlier work

**Q.** With CCCCCCOC(=O)NC(=N)c1ccc(NCc2nc3cc(C(=O)N(CCC(=O)OCC)c4ccccn4)ccc3n2C)cc1 [dabigatran etexilate] as the molecule, how does the “reduction of tumor cells in the blood and liver micrometastases” value read?
**A.** 50-60%
